Data on one substance can be found in paper PMC2771219 (Journal of molecular biology, 2009).

The Kd is the constant that tells how readily two partners part at equilibrium. A lower Kd goes with higher affinity.

The target in the experiment is UDP-galactopyranose mutase (UGM) (Klebsiella pneumoniae, UniProt Q48485, R384G). Put plainly: fluorescence polarization. It counts as binding. For orientation: Polarisation of emitted light reports the rotation of a fluorescent probe.

With UDP-fluorescein, the Kd came to 90 nM.
